Patent US8609733B2, “Sensory-specific local anesthesia and prolonged duration local anesthesia” (Massachusetts Institute of Technology, priority 2008, dated 2013)
Values joined by “and” are separate entries in the source; they are usually repeats but may differ in a detail not shown here. Equal entries are not always repeated.

What was measured:
Type in all cases: in vivo, Sprague-Dawley rats
sciatic nerve [1] = assay: Sensory selectivity of sciatic nerve blockade (thermal nociceptive versus motor block); conditions: for selective thermal nociceptive blockade as compared to motor blockade: in combination with OTAB (Example 3: 100 mM QX-222, 30 mM OTAB)
Description: (§1) Animals were cared for in compliance with protocols approved by the Massachusetts Institute of Technology (MIT) Committee on Animal Care, in conformity with the NIH guidelines for the care and use of laboratory animals (NIH publication #85-23, revised 1985). Rats were anesthetized using isoflurane in oxygen. A 25-gauge needle was introduced posteromedial to the greater trochanter, and 300 μL of the QX-314+/−enhancer solution was injected upon contacting bone. To determine the effect of QX-314 on sensory and motor blockade, animals were injected with QX-314 at different concentrations. To determine the effect of the chemical penetration enhancer (OTAB) on the sensory and motor blockade produced by QX-314, animals were injected with different concentrations of OTAB, with the concentration of QX-314 kept constant at 25 mM.
(§2) In all experiments, the experimenter was blinded as to what treatment any given rat had received. Presence and extent of nerve blockade was investigated as previously described (Kohane, et al., Anesthesiology, 89:1199-1208 (1998); Padera, et al., Muscle Nerve, 34:747-53 (2006); Kohane, et al., Anesthesiology, 89:119-31 (1998); Masters, et al., Anesthesiology, 79(2):340-346 (1993)). Briefly, thermal nociception of each leg was assessed, with the right (uninjected) leg serving as an untreated control.
(§3) Thermal nociception was assessed by a modified hotplate test. Hind paws were exposed in sequence (left then right) to a 56° C. hot plate (Model 39D Hot Plate Analgesia Meter, IITC Inc., Woodland Hills, Calif.). The time (latency) until paw withdrawal was measured with a stopwatch.
(§4) The duration of thermal nociceptive block was calculated as the time required for thermal latency to return to a value of 7 seconds from a higher value. Seven seconds is the midpoint between a baseline thermal latency of approximately 2 seconds in adult rats and a Maximal latency of 12 seconds. Latencies greater than 7 sec were considered to be effective blocks.
(§5) The rat was held with its posterior placed at a digital balance on which it could bear weight with one hindpaw at a time. The maximum weight that the rat could bear without its ankle touching the balance was measured.
(§6) Methods were as described in Example 1.
(§7) To establish that the selective block could be obtained with other local anesthetics, the methods of example 1 were performed using 100 mM QX-222 and 30 mM OTAB, and compared to the results obtained using 100 mM […] and 30 mM OTAB.

sciatic nerve [2] = assay: Duration of motor block after sciatic nerve injection, extensor postural thrust (EPT)
Description: (§8) Young adult male Sprague-Dawley rats (350-420 g) were obtained from Charles River Laboratories (Wilmington, Mass.) and housed in groups of two per cage on a 6 a.m. to 6 p.m. light/dark cycle. All animals were cared for in accordance with protocols approved institutionally and nationally.
(§9) QX-314 and octyltriethylammonium bromide (OTAB) (Sigma) solutions were prepared in saline individually and in combination with each enhancer the night before scheduled injections.
as §1, §2, §5, §6, §7

sciatic nerve [3] = assay: Duration of thermal nociceptive (sensory) block after sciatic nerve injection, modified hotplate test
Description: as §8, §9, §1, §2, §3, §4, §6, §7

[4] = 25 mM QX-314 co-injected with 5 mM SOS
[5] = 25 mM QX-314 co-injected with 10 mM SOS
[6] = 25 mM QX-314 co-injected with 0.5% TWEEN 20
[7] = QX-314 without CPE, different concentrations, 300 μl

For Cc1cccc(C)c1NC(=O)C[N+](C)(C)C [QX-222, 2-((2,6-dimethylphenyl)amino)-N,N,N-trimethyl-2-oxoethanaminium], the “selective thermal nociceptive blockade as compared to motor blockade” value (sciatic nerve [1]) was “Comparable selective thermal nociceptive blockade”.
CC[N+](CC)(CC)CC(=O)Nc1c(C)cccc1C [QX-314, N-(2,6)dimethylphenylcarbamoylmethyl triethylammonium bromide] was tested, and the “duration of motor block” value (sciatic nerve [2]; 25 mM QX-314 alone, 300 μL at the sciatic nerve, rat) was 165 min, the motor block (sciatic nerve [2]; [4]) was 0 min and the motor block (sciatic nerve [2]; [5]) was 532 min. The motor effect (sciatic nerve [2]; 25 mM QX-314 co-injected with 20 mM or 30 mM OTAB) was “little or no motor effect”, the median motor blockade (sciatic nerve [2]; [6]) was 0 min and the “motor duration of block versus concentration” value (sciatic nerve [2]; [7]) was “concentration-dependent increase”. The sensory block (sciatic nerve [3]; [4]) was 235 min, the sensory block (sciatic nerve [3]; [5]) was 870 min and the “sensory DEB (duration of effective block)” value (sciatic nerve [3]; 25 mM QX-314 co-injected with 20 mM OTAB) was 428 min and 406 min. The “duration of sensory block” value (sciatic nerve [3]; 25 mM QX-314 co-injected with 30 mM OTAB) was 450 min, the median sensory blockade (sciatic nerve [3]; [6]) was 269 min and the “sensory duration of block versus concentration” value (sciatic nerve [3]; [7]) was “concentration-dependent increase”. For the same compound, the sensory selectivity (sciatic nerve [1]; 25 mM QX-314 co-injected with SOS 5, 10, 20, 30 mM) was “sensory selectivity at all concentrations of SOS”, the sensory specificity (sciatic nerve [1]; 25 mM QX-314 with higher OTAB concentrations (>30 mM)) was “no sensory specificity” and the specificity of block (sciatic nerve [1]; 25 mM QX-314 with higher SOS concentrations (10-30 mM)) was “initially non-specific”. The “sensory versus motor block duration” value (sciatic nerve [1]; 25 mM QX-314 with lower concentrations of OTAB (10-30 mM)) was “significant increase in sensory block duration, without a corresponding increase in motor block duration”, the modality specificity (sciatic nerve [1]; QX-314 in the absence of a CPE) was “no evidence of modality specificity” and the “TWEEN 20 concentration of maximum sensory specificity (optimal)” value (sciatic nerve [1]; co-injected with 25 mM QX-314) was 0.5%. The “selective thermal nociceptive blockade as compared to motor blockade” value (sciatic nerve [1]) was “Comparable selective thermal nociceptive blockade”, the “SOS concentration range with sensory selectivity” value (sciatic nerve [1]; with 25 mM QX-314) was 1 to 50 mM and the “optimal OTAB concentration for sensory selectivity” value (sciatic nerve [1]; with 25 mM QX-314) was 20 mM.
